According to US9456599B2, “Adjuvants” (SYNGENTA LIMITED, priority 2012, dated 2016):

Assays:
Assay type in all cases: in vivo
Septoria tritici [1] = test: Septoria tritici on wheat, isopyrazam with compound E (Example 8); settings: wheat leaf area infected 12 days after spray; isopyrazam 3, 10, 30 and 100 mg/l, adjuvant 0.1% by volume; mean over four rates, four replicates
Protocol: Wheat plants were inoculated with the fungus Septoria tritici. Four days after inoculation the plants were sprayed with a diluted suspension concentrate formulation of the fungicide isopyrazam at rates of 3, 10, 30 and 100 mg of the fungicide per liter of spray solution, using a laboratory track sprayer which delivered the spray at a rate of 200 liters per hectare. Spray tests were also carried out with a diluted suspension concentrate additionally comprising the carbonate compound E (see Table 7) added to the spray solution at a rate of 0.1% v/v, based on the quantity of spray liquor. The leaves of the plants were assessed visually 12 days after the spray application and the damage was expressed as the percentage of the leaf area infected. Each spray test was replicated four times across the four application rates.
The results shown in Table 13 below are mean averages over the four rates of isopyrazam and the four replicates, and are compared to the efficacy of isopyrazam in the absence of an adjuvant, and isopyrazam in the presence of oleyl ethoxylate 20EO butyl end capped adjuvant used as a standard adjuvant for comparative purposes (at 0.1% by volume).

Septoria tritici [2] = test: Septoria tritici on wheat, isopyrazam with B92-P-/B96-P-carbonate (Example 10); settings: wheat leaf area infected 14 days after spray; isopyrazam 3, 10, 30 and 100 mg/l, adjuvant 0.1% by volume; mean over four rates, twelve replicates
Protocol: Wheat plants were inoculated with the fungus Septoria tritici. Four days after inoculation the plants were sprayed with a diluted suspension concentrate formulation of the fungicide isopyrazam at rates of 3, 10, 30 and 100 mg of the fungicide per liter of spray solution, using a laboratory track sprayer which delivered the spray at a rate of 200 liters per hectare. Spray tests were also carried out with diluted suspension concentrates additionally comprising the carbonates B92-P-carbonate and B96-P-carbonate (see Table 1) which were added to the spray solution at a rate of 0.1% v/v, based on the quantity of spray liquor. The leaves of the plants were assessed visually 14 days after the spray application and the damage was expressed as the percentage of the leaf area infected. Each spray test was replicated twelve times across the four application rates.
The results shown in Table 15 below are mean averages over the four rates of isopyrazam and the twelve replicates, and are compared to the efficacy of isopyrazam in the absence of an adjuvant, and isopyrazam in the presence of oleyl ethoxylate 20EO butyl end capped which was used as a standard for comparative purposes (at 0.1% by volume).

Brachiaria plantaginea = test: Glasshouse post-emergence spray test, mesotrione with adjuvant (Example 3); settings: mesotrione 30 or 60 g/ha, carbonate 0.2% or 0.5% Tween 20 + Rhodasurf DA/630-E; mean over two rates, three replicates, 14 and 21 days
Protocol: (§1) Brachiaria plantaginea, Digitaria sanguinalis, Commelina benghalensis and Polygonum convulvulus seeds were sown into standard soil in pots and cultivated under controlled conditions in a glasshouse (at 24/18° C. day/night; 16 hours light; 65% humidity).
(§2) When the plants were at the vegetative stage of 2-4 leaves they were sprayed with an aqueous spray solution containing the herbicide mesotrione and 0.2% v/v of one of the carbonates B92-P-Carbonate, B92-B-Carbonate and B96-P-Carbonate (see Table 1).
(§3) The spray solution was applied with a cabinet tracksprayer with a flat fan nozzle (Teejet 11002VS) and an application volume of 200 liter/ha (at 2 bar). Mesotrione was applied at either 30 or 60 grams of pesticide per hectare.
(§4) The test plants were then grown on, in a glasshouse under controlled conditions (at 24/18° C. day/night; 16 hours light; 65% humidity) and watered twice a day. After 14 and 21 days the test was evaluated for general crop injury (100% equals total damage to a plant; 0% equals no damage to a plant).
(§5) The results shown in Table 5 below are mean averages over the two rates of mesotrione, three replicates and the two assessment timings, and are compared to the efficacy of mesotrione in the absence of an adjuvant, and mesotrione in the presence of the commercially available tank-mix adjuvant, Tween 20 ®+Rhodasurf DA/630-E® (2:1 in water).

Commelina benghalensis = test: as above; settings: mesotrione 30 or 60 g/ha, carbonate 0.2% or 0.5% Tween 20 + Rhodasurf DA/630-E; mean over two rates, three replicates, 14 and 21 days
Protocol: as §1, §2, §3, §4, §5

Digitaria sanguinalis = test: as above; settings: mesotrione 30 or 60 g/ha, carbonate 0.2% or 0.5% Tween 20 + Rhodasurf DA/630-E; mean over two rates, three replicates, 14 and 21 days
Protocol: as §1, §2, §3, §4, §5

Polygonum convulvulus = test: as above; settings: mesotrione 30 or 60 g/ha, carbonate 0.2% or 0.5% Tween 20 + Rhodasurf DA/630-E; mean over two rates, three replicates, 14 and 21 days
Protocol: as §1, §2, §3, §4, §5

[3] = tested on: Brachiaria plantaginea, Digitaria sanguinalis, Commelina benghalensis and Polygonum convulvulus; test: Glasshouse post-emergence spray test, mesotrione with adjuvant (Example 3), mean across species; settings: mesotrione 30 or 60 g/ha, carbonate 0.2% or 0.5% Tween 20 + Rhodasurf DA/630-E; 14 and 21 days; Tukey HSD letter
Protocol: as §1, §2, §3, §4, §5

[4] = tested on: Brachiaria plantaginea, Digitaria sanguinalis, Commelina benghalensis and Polygonum convulvulus; test: Glasshouse spray test, mesotrione with carbonates A-D (Example 6), mean over four plant species; settings: Table 10: mesotrione 30 or 60 g/ha, compounds A-D 0.2%, Tween + Rhodasurf 0.5%; 25 days; mean over rates, replicates, four species
Protocol: as §1
When the plants were at the vegetative stage of 2-4 leaves they were sprayed with an aqueous spray solution containing the herbicide mesotrione and 0.2% v/v of one of the carbonates A, B, C and D (see Table 7).
as §3
as §4, with “25” for “14 and 21”, “injury or phytotoxicity” for “injury”
as §5, with “10” for “5”, “mesotrione, the” for “mesotrione,”, “four plant species” for “two assessment timings,”, “(combined” for “(2:1”, “a 2:1 ratio) at 0.5% by volume.” for “water).”

Alopecurus myosuroides = test: Glasshouse post-emergence spray test, pinoxaden with adjuvant (Example 4); settings: pinoxaden 7.5 or 15 g/ha, adjuvant 0.2%; mean over two rates, three replicates, 14 and 21 days
Description: (§6) When the plants were at the vegetative stage of 2-3 leaves they were sprayed with an aqueous spray solution containing the herbicide pinoxaden and 0.2% v/v of one of the carbonates B92-P-Carbonate, B92-B-Carbonate and B96-P-Carbonate (see Table 1).
(§7) The spray solution was applied with a cabinet tracksprayer with a flat fan nozzle (Teejet 11002VS) and an application volume of 200 liter/ha (at 2 bar). Pinoxaden was applied at either 7.5 or 15 grams of pesticide per hectare. […] After 14 and 21 days the test was evaluated for general crop injury (100% equals total damage to a plant; 0% equals no damage to a plant).

Avena fatua = test: as above; settings: pinoxaden 7.5 or 15 g/ha, adjuvant 0.2%; mean over two rates, three replicates, 14 and 21 days
Description: as §6, §7

Lolium perenne = test: as above; settings: pinoxaden 7.5 or 15 g/ha, adjuvant 0.2%; mean over two rates, three replicates, 14 and 21 days
Description: as §6, §7

Setaria viridis = test: as above; settings: pinoxaden 7.5 or 15 g/ha, adjuvant 0.2%; mean over two rates, three replicates, 14 and 21 days
Protocol: (§8) Avena fatua, Lolium perenne, Setaria viridis and Alopecurus myosuroides seeds were sown into standard soil in pots and cultivated under controlled conditions in a glasshouse (at 20/16° C. day/night; 15 hours light; 65% humidity).
as §6
The spray solution was applied with a cabinet tracksprayer with a flat fan nozzle (Teejet 11002VS) and an application volume of 200 liter/ha (at 2 bar). Pinoxaden was applied at either 7.5 or 15 grams of pesticide per hectare. The test plants were then grown on in a glasshouse under controlled conditions (at 24/18° C. day/night; 16 hours light; 65% humidity) and watered twice a day. After 14 and 21 days the test was evaluated for general crop injury (100% equals total damage to a plant; 0% equals no damage to a plant).
The results shown in Table 6 below are mean averages over the two rates of pinoxaden, three replicates and the two assessment timings, and are compared to the efficacy of pinoxaden in the absence of an adjuvant, and pinoxaden in the presence of the tris(2-ethylhexyl)phosphate [TEHP, used as a standard, for comparative purposes] (at 0.2% by volume).

[5] = tested on: Avena fatua, Lolium perenne, Setaria viridis and Alopecurus myosuroides; test: Glasshouse post-emergence spray test, pinoxaden with adjuvant (Example 4), mean across species; settings: pinoxaden 7.5 or 15 g/ha, adjuvant 0.2%; 14 and 21 days; Tukey HSD letter
Description: as §6, §7

[6] = tested on: Avena fatua, Lolium perenne, Setaria viridis and Alopecurus myosuroides; test: Glasshouse spray test, pinoxaden with carbonates A-E (Example 7), mean over four plant species; settings: 22 days, mean over rates, replicates, four species
Protocol: as §8
When the plants were at the vegetative stage of 2-3 leaves they were sprayed with an aqueous spray solution containing the herbicide pinoxaden and 0.2% v/v of one of the carbonates A, B, C, D and E (see Table 7).
The spray solution was applied with a cabinet tracksprayer with a flat fan nozzle (Teejet 11002VS) and an application volume of 200 liter/ha (at 2 bar). Pinoxaden was applied at either 7.5 or 15 grams of pesticide per hectare.
as §4, with “on.” for “on,”, “22” for “14 and 21”, “injury or phytotoxicity” for “injury”
The results shown in Table 11 below are mean averages over the two rates of pinoxaden, the three replicates and the four plant species, and are compared to the efficacy of pinoxaden in the absence of an adjuvant, and pinoxaden in the presence of tris(2-ethylhexyl)phosphate, used as a standard adjuvant for comparative purposes (at 0.2% by […] volume).

In the case of `CC(C)C1C2CCC1c1c(NC(=O)c3cn(C)nc3C(F)F)cccc12` (stereo not drawn) [Isopyrazam], the Mean % infection (Septoria tritici [1]) was 65.1% and the Mean % infection (Septoria tritici [2]) was 76.9%.
For `CS(=O)(=O)c1ccc(C(=O)C2C(=O)CCCC2=O)c([N+](=O)[O-])c1` [Mesotrione], the “Mean percentage kill BRAPL” value (Brachiaria plantaginea) was 1.7%, the “Mean percentage kill COMBEN” value (Commelina benghalensis) was 53.3% and the “Mean percentage kill DIGSA” value (Digitaria sanguinalis) was 44.2%. For the same compound, the “Mean percentage kill POLCONV” value (Polygonum convulvulus) was 70.8%, the “Mean percentage kill, Mean across species” value [3] was 42.5 B % and the “Mean % Phytotoxicity” value [4] was 33.71%.
With `CCc1cc(C)cc(CC)c1-c1c(OC(=O)C(C)(C)C)n2n(c1=O)CCOCC2` [Pinoxaden] the “Mean percentage kill ALOPECURUS MYOSUROIDES” value (Alopecurus myosuroides) was 0%, the “Mean percentage kill AVENA FATUA” value (Avena fatua) was 10.0% and the “Mean percentage kill LOLIUM PERENNE” value (Lolium perenne) was 1.7%. The “Mean percentage kill SETARIA VIRIDIS” value (Setaria viridis) was 0%, the “Mean percentage kill, Mean across species” value [5] was 2.9 C % and the “Mean % Phytotoxicity” value ([6]; Table 11: pinoxaden 7.5 or 15 g/ha, compounds A-D or tris(2-ethylhexyl)phosphate 0.2% by volume) was 4.25%. For the same compound, the “Mean % Phytotoxicity” value ([6]; Table 12: pinoxaden 7.5 or 15 g/ha, compound E or tris(2-ethylhexyl)phosphate 0.2% by volume) was 0%.
